“Also recorded” adds a separate entry of the source. Where two headings read alike, the source gives them in different places.
What was measured:
MIF/ssDNA binding = biological target: T1, MIF/ssDNA binding (Homo sapiens, UniProt P14174); assay: MIF/ssDNA binding assay (ZP307-labeled MIF, PA20-Q1 quenching); conditions: labeled MIF 1 μM, PA20-Q1 1 μM; 6y up to 100 μM
T1 construct: made in house; host or cells: Escherichia coli BL21
T1 sequence (P14174 2-115 limits assumed): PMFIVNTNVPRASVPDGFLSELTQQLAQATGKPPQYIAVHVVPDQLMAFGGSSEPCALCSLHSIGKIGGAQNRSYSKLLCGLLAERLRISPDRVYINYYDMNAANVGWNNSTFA
From the text: Although in our hands the nuclease activity could not unambiguously be assigned to MIF (due to the possibility of bacterial contamination), there is still a possibility that MIF binds to single-stranded DNA (ssDNA). Furthermore, the direct interaction between MIF and ssDNA was investigated. We developed a MIF/ssDNA binding assay to detect and quantify the binding of MIF to ssDNA (Figure 6f). To establish this assay, we employed a MIF probe ZP307 (Figure 1c) that binds covalently to the N-terminal proline of MIF. This probe enables the fluorescent labeling of MIF.[38] The oligonucleotide Poly A was earlier described as a MIF nuclease substrate, lacking a secondary structure.[11] […] This enabled using the BHQ1-labeled poly A oligonucleotide (PA20-Q1) as an energy acceptor to quench fluorescence emission by labeling MIF once a MIF/ssDNA complex formed (Figure 6f). […]
Five equivalents of probe ZP307 were mixed with recombinant MIF protein for MIF labeling and incubated overnight at 4 °C. […] The fluorescence (Ex488/Em520) was determined immediately using a BioTek Synergy H1 Hybrid plate reader. The wells in the absence of PA20-Q1 were considered a positive control (100% of fluorescence signal), whereas the wells without inhibitors were considered a negative control (0% of fluorescence signal).

MIF/AIF binding = biological target: T2, MIF/AIF binding (Homo sapiens, UniProt P14174); assay: MIF/AIF binding ELISA; conditions: MIF-coated plate, his-tagged AIF 4 μM
T2 construct: host or cells: Escherichia coli BL21 (MIF)
T2 sequence (P14174 2-115 limits assumed): T1 sequence (P14174 2-115 limits assumed)
Description: Next, we investigated the mechanism by which 6y protects genome DNA. Considering that […] is a crucial step in parthanatos, we tested if 6y interferes with MIF/AIF binding in vitro. […] Under control conditions, MIF and AIF are mainly located in the cytosol. […] Human recombinant untagged MIF was diluted in the binding buffer (Tris-HCl 100 mM, 5 mM MgCl2, 150 mM NaCl, pH 8.5) to a final concentration of 250 nM. 100 μL of MIF solution was used to coat each well of a high-binding 96-well plate overnight at 4 °C. […] After 2 h incubation, the plate was washed three times with washing buffer and incubated with anti-poly-Histidine–peroxidase antibody (Sigma, Amsterdam, the Netherlands) for 30 min. After washing, 100 μL of mixed HRP substrate reagent (R&D Systems, Minneapolis) was added, and the colorizing reaction was stopped by adding 100 μL of 1N sulfuric acid. The absorbance at 450 nm was determined with the correction at […] via a Synergy H1 plate reader.

HeLa cells [1] = type: cell-based
HeLa cells [2] = assay: Immunofluorescence staining and confocal microscopy (MIF and AIF nuclear translocation); type: cell-based
Description: Next, we investigated the mechanism by which 6y protects genome DNA. Considering that […] is a crucial step in parthanatos, we tested if 6y interferes with MIF/AIF binding in vitro. […] Under control conditions, MIF and AIF are mainly located in the cytosol. Upon MNNG treatment, both MIF and AIF translocated to the nucleus.
Immunofluorescence staining was applied to cells to determine the nuclear trans-localization of AIF and MIF. HeLa cells were seeded onto a coverslip and treated with or without 100 μM 6y for 3 h. Then, parthanatos was induced by MNNG (50 μM, 15 min). The same amount of medium in the absence of MNNG was added for the negative control group. After overnight incubation, the cells were fixed with methanol and blocked with 2% BSA in 0.1% PBS-T. AIF and MIF were detected by AIF Monoclonal Antibody (7F7AB10, Invitrogen) and MIF Polyclonal Antibody (PA5-27343, Invitrogen), respectively. Then, AIF and MIF primary antibodies were visualized by Alexa Fluor 647 conjugated anti-Mouse IgG (Invitrogen) and Alexa Fluor 488 conjugated anti-rabbit IgG (Cell Signaling Technology, Leiden, the Netherlands), respectively. After washing, coverslips were mounted onto objective slides with an anti-fading mounting medium with NucBlue stain (Invitrogen). The pictures were acquired using a Leica SP8 confocal laser scanning microscope and analyzed by ImageJ.

HeLa cells [3] = assay: Cell morphology after MNNG treatment; type: cell-based; conditions: pretreatment with 6y, dose- and time-dependent
From the text: In addition, cellular morphology was investigated to see if the MIF inhibitor 6y restores the original phenotype.

HeLa cells [4] = assay: Cell viability (MTS) assay, MNNG-induced parthanatos; type: cell-based; conditions: 3 h pretreatment, MNNG 50 μM 15 min, 24 h, MTS, read-out: EC50, protection from MNNG-induced parthanatos

## O=C(Nc1ccccc1)c1ccc(-n2cc(C(=O)NCc3cccs3)nn2)cc1 [Compound 6y, 1-(4-(Phenylcarbamoyl)phenyl)-N-(thiophen-2-ylmethyl)-1H-1,2,3-triazole-4-carboxamide]
MIF/ssDNA binding
  MIF/PA20-Q1 binding: unable to block MIF/PA20-Q1 binding; also recorded: could not replace the oligonucleotide
MIF/AIF binding
  IC50: 12.3 µM
HeLa cells [1]; HeLa, 50 μM 6y 2 h, then 10 μM MNNG 2 h, alkaline conditions
  MNNG-induced DNA damage (comet assay): inhibited
HeLa cells [1]; HeLa, without MNNG
  Effect of compound alone on genome integrity (comet assay): did not affect genome integrity
HeLa cells [1]; pretreatment, dose and time-dependent
  Genomic DNA fragmentation (gel electrophoresis): protective effect
HeLa cells [2]; 100 μM 6y, MNNG 50 μM 15 min
  AIF nuclear translocation upon MNNG stimulation: uninfluenced
  MIF nuclear translocation upon MNNG stimulation: blocks MIF nuclear translocation
HeLa cells [2]; without MNNG
  MIF localization under control conditions: did not affect MIF localization
HeLa cells [3]
  Restoration of original cell phenotype after MNNG: mainly (but not completely) restored
HeLa cells [4]
  EC50: ~8 µM
HeLa cells [4]; Homo sapiens
  EC50: 7.7 ± 2.1 µM
